We go through one molecule from EP1380292A1, “Tiaprid for the treatment of depressions” (Mewicon med. wiss. Beratung GmbH, priority 2002, dated 2004).

Assay [1] has as its system Pyramidenzellen im Hippokampus-Schnittpräparat der Ratte. As to the kind of experiment: Long-term potentiation in the hippocampus slice preparation in vitro. Also on record: species or system CD-Ratten. The procedure: Testmethode 2 (Langzeitpotenzierung im Hippokampus-Schnittpräparat in vitro)
Die Wirkung von Tiaprid auf die Langzeitpotenzierung der Pyramidenzellen im Hippokampus-Schnittpräparat der Ratte wurde bestimmt.
Für die Durchführung dieser Studie wurden 15 erwachsene männliche CD-Ratten verwendet. Die Isolation des Hippokampus erfolgte an äthernarkotisierten und anschließend exsanguinierten Tieren. In Phosphat-gepufferter Salzlösung (NaCl: 124 mM; KCl: 5 mM; CaCl2: 2 mM; MgSO4: 2 mM; NaH2PO4: 1,25 mM; NaHCO3: 26 mM; Glucose: 10 mM; Kontroll-Lösung: künstliche Zerebral-Spinal-Flüssigkeit (ASCF, artificial cerebral spinal fluid); alle von der Firma Roth, Karlsruhe DE) wurde der mittlere Teil des Hippokampus mit Hilfe eines Schnellklebers aufgeblockt und mit einem Vibratom (Rhema Labortechnik) in 400 µm dicke Scheiben geschnitten. Die Aufbewahrung dieses Hippokampusschnittes erfolgte für mindestens 1 Stunde vor Versuchsbeginn (siehe S.J. Schiff, G.G. Somjen "The Effects of Temperature on Synaptic Transmission in Hippocampal Tissue Slices" Brain Research (1985), 345, 279-284) in einer mit Carbogen durchperlten Inkubationskammer.
Das Experiment selbst wurde in einer sog. "Base Unit mit Haas Top" (Firma Medical Systems Corp.) bei 35°C durchgeführt. Der mit Hilfe peristaltischer Pumpen (Infusomat, B. Braun Melsungen AG) superfundierte Hippokampusschnitt lag auf einem Stück Gaze. […]

The next assay has as its system D2/D3 Dopaminrezeptoren. As to conditions: from the literature (Scatton et al., Eur Psychiatry 2001); cited from earlier work.
Assay [2] relates to frontalem Kortex, Hippokampus, Striatum und Formatio Reticularis abgeleiteten Feldpotentiale. Nature of the assay: Tele-Stereo-EEG: changes of EEG frequencies in freely moving rats after i.p. administration. It is filed as in vivo, Fischer-344 Ratten. The following applies: for Veränderungen der EEG-Frequenzen: i.p., 40 bis 100 mg/kg, rat, significant at least at P < 5 %-Level. How it is done: Testverfahren 1 ((Tele-Stereo-EEG)
Die Veränderungen der EEG-Frequenzen nach Gabe von Salzlösung (Kontrolle) bzw. einer Dosis von Tiaprid (40 bis 100 mg/kg Körpergewicht) wurden bestimmt.
Der Stecker diente der Aufnahme eines 4-Kanal-Senders zur telemetrischen Übertragung der aus frontalem Kortex, Hippokampus, Striatum und Formatio Reticularis abgeleiteten Feldpotentiale. Die Signale wurden auf einem Computer System (Software "EEG-Analyse", Betriebsystem OS Science, Laborrechner "LabTeam" der Firma MediSyst, Linden DE) in Echtzeit einer Fast-Fourier-Transformation unterworfen und die Leistungsdichtespektren jeweils über 15 bis 60 Minuten gemittelt. Die Unterteilung der Spektren in 6 verschiedene Frequenzbereiche erlaubte die Erfassung pharmakospezifischer Veränderungen in Bezug auf die jeweils vor der Applikation gemessenen Vorwerte innerhalb dieser Frequenzbänder.
Zum Applikationsprotokoll der Substanzen: Die Substanzen wurden i.p. 45 Minuten nach Beginn der Messungen (Vorwert) injiziert. Fünf Minuten später wurden die Messungen wieder gestartet, mindestens über die nächsten 5 Stunden kontinuierlich analysiert und in 15-minütigen Perioden zusammengefasst. Die Testsubstanz wurde in einer Dosierung von 40 bis 100 mg/kg appliziert. Die experimentelle Serie wurde mit der Injektion von Salzlösung (Kontrolle) begonnen.
Die beobachteten Frequenzänderungen wurden mittels einer Diskriminanzanalyse mit den Ergebnissen mit herkömmlichen antidepressiv wirkenden Arzneimitteln sowie Arzneimitteln für andere Indikationen verglichen. Es wurden folgende Arzneimittel verwendet: 100 mg/kg Tiaprid (Tiapr), 2 mg/kg Paroxetin (Parox), 10 mg/kg Imipramin (Imip), 10 mg/kg Amitryptilin (Amit), 1 mg/kg Nomifensin (Nomi), 0.5 mg/kg Midazolam (Midaz), 60 mg/kg Phenobarbital (Pheno), 60 mg/kg Meprobamat (Meprob), 0.5 mg/kg Chlorpromazin (Chlorp), 0,25 mg/kg Haloperidol (Halop), 1 mg/kg Prothipendyl (Prothi), 10 mg/kg Thioridazin (Thior), 15 mg/kg Carbamazepin (Carba), 75 mg/kg Valproinsäure (Valpr), 6 mg/kg Phenytoin (Pheny). Des weiteren wurden geprüft: 1,3 Vol.-% Halothan (Haloth), 100 mg/kg Propofol (Propo), 1,0 Vol.-% Isofluran (Isofl), 4,5 Vol.-% Desfluran (Desfl), 1,8 Vol.-% Sevofluran (Sevofl) und 1,7 Vol.-% Enfluran (Enfl). Die Ergebnisse sind in Fig. 2 dargestellt.

Consider `CCN(CC)CCNC(=O)c1cc(S(C)(=O)=O)ccc1OC` [Tiaprid, N-2-(Diethylaminoethyl)-5-methylsulfonyl-2-methoxybenzamide], for which, in assay [1] (Tiaprid added to superfusion fluid, 2 concentrations, rat hippocampus slice, 35°C, N = 6 slices), the “Amplitude der Populationsspikes” value is on record as “konzentrationsabhängig zu einer deutlichen Abnahme der Amplitude der Populationsspikes”. Moreover, the Langzeitpotenzierung entry in assay [1] (rat hippocampus slice in vitro, tetanic stimulus) is listed as “Unterdrückung der "Langzeitpotenzierung"”. For the same molecule, the Rezeptor-Bindungsprofil entry in the assay on D2/D3 Dopaminrezeptoren is given as “selektive Blockade von D2/D3 Dopaminrezeptoren”. In addition, the “Muster der EEG-Frequenzänderungen ("Fingerprint", Diskriminanzanalyse)” value in assay [2] (discriminant analysis against antidepressants and drugs for other indications, 100 mg/kg Tiaprid) is reported as “korrelieren in signifikanter Weise mit den Mustern, die für andere antidepressive Arzneimittel kennzeichnend sind”. Moreover, the “Veränderungen der EEG-Frequenzen” value in assay [2] (first hour after administration) is “Abfall bei allen Frequenzen”; in assay [2] (next (second) hour after administration) it was “im Hippokampus und Striatum Theta- und Alpha2-Wellen nicht mehr so stark vermindert”. The “Veränderungen der elektrischen Gehirnaktivität” value in assay [2] (i.p. single dose, compared with saline (0,9 % NaCl-Lösung), all brain areas, all frequencies) is listed as “statistisch signifikantes Niveau im Vergleich zu Salzlösung”.
